Values quoted from earlier work in PMC5107951 (Scientific Reports, 2016).

Tested on: GABA-A receptor
Details: cited from earlier work

Substance	binding to GABA-A receptor (in words)
α-cobratoxin	also binds
α-conotoxin ImI	low affinity
